Laboratory results: patent publication US4477465A, “Substituted 4,10-dihydro-10-oxothieno benzoxepins” (Hoechst-Roussel Pharmaceuticals Inc., priority 1983, dated 1984)
Read-outs that look alike come from different tables or passages of the source.

Legend:
[1] = test system: carrageenin induced rat paw edema; test: carrageenin induced rat paw edema antiinflammatory assay; format: in vivo; conditions: for Carrageenin Paw Edema %: dose 20 mg/kg (p.o.), rat
Source text: The compounds of the present invention are useful as antiinflammatory agents due to their ability to suppress inflammation in mammals. […] Exptl. Biol. Med., III 544 (1962), J. Pharmacol. Exp., 141 (1963)].

[2] = test system: 2-phenyl-1,4-benzoquinone-induced writhing; test: 2-phenyl-1,4-benzoquinone-induced writhing test in mice (analgesia); format: in vivo; conditions: Mus musculus, po
[3] = mice, read-out: Phenylquinone Writhing ED50 Orally (p.o.)

In the case of `CC1(C)COC(Cc2ccc3c(c2)C(=O)c2sccc2CO3)=N1` [2-(4,10-Dihydro-10-oxothieno[3,2-c][1]benzoxepin-8-yl)methyl-4,4-dimethyl-oxazoline], the “Carrageenin Paw Edema %” value [1] is reported as 49% and the ED50 [2, 3] is reported as 7.22 mg/kg.
With `COC(=O)COC(=O)Cc1ccc2c(c1)C(=O)c1sccc1CO2` [Methyl (4,10-dihydro-10-oxothieno[3,2-c][1]benzoxepin-8-yl) acetoxyacetate] the “Carrageenin Paw Edema %” value [1] was 43% and the ED50 [2, 3] was 1.53 mg/kg.
Compound `COc1ccc2c(c1)c(CC(=O)O)c(C)n2C(=O)c1ccc(Cl)cc1` [indomethacin, reference compound] has an ED50 ([2]; read-out: analgesic activity ED50) of 0.7 mg/kg.
In the case of `CCCCC1C(=O)N(c2ccccc2)N(c2ccccc2)C1=O` [phenylbutazone, reference compound], the inhibition of edema ([1]; dose 50 mg/kg (p.o.), in a similar test) is reported as 50%.
